Values joined by “and” are separate entries in the source; they are usually repeats but may differ in a detail not shown here. Equal entries are not always repeated. Toxic doses and inconclusive results are not listed.
Tested on: BDF1 mice, L1210 leukemia sc, survival T/C
Experiment: NCI In Vivo Anticancer Drug Screen. Data for tumor model L1210 Leukemia (subcutaneous) in B6D2F1 (BDF1) mice
Conditions: endpoint: median survival time, higher = longer survival
Procedure: The antitumor activity of compounds was measured in mice bearing transplantable tumors. Survival or tumor size were measured and the results are expressed as the measurement made in the treated group (T) divided by the measurement made in the vehicle treated control group (C). The tumor model used in this assay is L1210 Leukemia (subcutaneous) in B6D2F1 (BDF1) mice

[1] = dose: 39.0 mg/kg/injection, schedule: Q01DX Z (sc), vehicle: methylcellulose (MC)
[2] = dose: 65.0 mg/kg/injection, schedule: Q01DX Z (sc), vehicle: methylcellulose (MC)

Q: How did the T/C (dose: 0.23 mg/kg/injection, schedule: Q01DX Z (sc), vehicle: saline) turn out when `C1CN1c1nc(N2CC2)nc(N2CC2)n1` was run?
A: 100 % of control

Q: What about the T/C (dose: 0.39 mg/kg/injection, schedule: Q01DX Z (sc), vehicle: saline) of the same molecule?
A: 104 % of control and 105 % of control

Q: And the T/C (dose: 0.65 mg/kg/injection, schedule: Q01DX Z (sc), vehicle: saline)?
A: 112 % of control and 115 % of control

Q: What about the T/C (dose: 1.08 mg/kg/injection, schedule: Q01DX Z (sc), vehicle: saline) of the same molecule?
A: 160 % of control

Q: What about the T/C (dose: 3.0 mg/kg/injection, schedule: Q01DX Z (sc), vehicle: saline) of the same molecule?
A: 108 % of control

Q: What about the T/C (dose: 5.0 mg/kg/injection, schedule: Q01DX Z (sc), vehicle: saline) of the same molecule?
A: 104 % of control and 120 % of control

Q: Which results are given for `CN(C)c1nc(N(C)C)nc(N(C)C)n1`?
A: T/C (dose: 39.0 mg/kg/injection, schedule: Q01DX Z (sc), vehicle: saline): 100 % of control; T/C (dose: 65.0 mg/kg/injection, schedule: Q01DX Z (sc), vehicle: saline): 100 % of control; T/C (dose: 108.0 mg/kg/injection, schedule: Q01DX Z (sc), vehicle: saline): 100 % of control; T/C (dose: 180.0 mg/kg/injection, schedule: Q01DX Z (sc), vehicle: saline): 100 % of control; T/C (dose: 300.0 mg/kg/injection, schedule: Q01DX Z (sc), vehicle: saline): 95 % of control and 105 % of control; T/C (dose: 500.0 mg/kg/injection, schedule: Q01DX Z (sc), vehicle: saline): 95 % of control; T/C (dose: 833.0 mg/kg/injection, schedule: Q01DX Z (sc), vehicle: saline): 110 % of control; T/C (dose: 1388.0 mg/kg/injection, schedule: Q01DX Z (sc), vehicle: saline): 100 % of control

Q: Which T/C (dose: 1.08 mg/kg/injection, schedule: Q01DX Z (sc), vehicle: water) does the source give for `ClCCN(CCCl)CCNc1ccnc2cc(Cl)ccc12` here?
A: 100 % of control

Q: And the T/C (dose: 8.4 mg/kg/injection, schedule: Q01DX Z (sc), vehicle: water)?
A: 100 % of control

Q: What about the T/C (dose: 23.0 mg/kg/injection, schedule: Q01DX Z (sc), vehicle: water) of the same molecule?
A: 100 % of control

Q: What about the T/C (dose: 39.0 mg/kg/injection, schedule: Q01DX Z (sc), vehicle: water) of the same molecule?
A: 100 % of control

Q: And the T/C (dose: 65.0 mg/kg/injection, schedule: Q01DX Z (sc), vehicle: olive oil, sesame oil, peanut oil)?
A: 100 % of control

Q: For `CS(C)=O`, which T/C (dose: 1.5 grams/kg/injection, schedule: Q01DX009 (ip), vehicle: saline) is on record?
A: 103 % of control

Q: And the T/C (dose: 3.0 grams/kg/injection, schedule: Q01DX009 (ip), vehicle: saline)?
A: 97 % of control

Q: What about the T/C (dose: 6.0 grams/kg/injection, schedule: Q01DX009 (ip), vehicle: saline) of the same molecule?
A: 103 % of control

Q: `CN=C(NC)c1ccc(NC(=O)c2ccc(C(=O)Nc3ccc(C(=NC)NC)cc3)c(Cl)c2)cc1` was tested. Which T/C [1] did it give?
A: 100 % of control

Q: And the T/C [2]?
A: 100 % of control

Q: And the T/C (dose: 108.0 mg/kg/injection, schedule: Q01DX Z (sc), vehicle: methylcellulose (MC))?
A: 100 % of control

Q: And the T/C (dose: 180.0 mg/kg/injection, schedule: Q01DX Z (sc), vehicle: methylcellulose (MC))?
A: 105 % of control

Q: And the T/C (dose: 300.0 mg/kg/injection, schedule: Q01DX Z (sc), vehicle: methylcellulose (MC))?
A: 100 % of control

Q: Which results are given for `CS(=O)(=O)OCCCl`?
A: T/C (dose: 14.0 mg/kg/injection, schedule: Q01DX Z (sc), vehicle: methylcellulose (MC)): 90 % of control; T/C (dose: 23.0 mg/kg/injection, schedule: Q01DX Z (sc), vehicle: methylcellulose (MC)): 95 % of control; T/C [1]: 90 % of control; T/C [2]: 100 % of control

Q: For `CCOC(=O)CCC(NC(=O)N(CCCl)CCCl)C(=O)OCC` (stereo unspecified), which T/C (dose: 65.0 mg/kg/injection, schedule: Q01DX Z (sc), vehicle: water) is on record?
A: 106 % of control

Q: And the T/C (dose: 108.0 mg/kg/injection, schedule: Q01DX Z (sc), vehicle: water)?
A: 112 % of control

Q: What about the T/C (dose: 180.0 mg/kg/injection, schedule: Q01DX Z (sc), vehicle: water) of the same molecule?
A: 100 % of control

Q: And the T/C (dose: 300.0 mg/kg/injection, schedule: Q01DX Z (sc), vehicle: water)?
A: 100 % of control

Q: What about the T/C (dose: 500.0 mg/kg/injection, schedule: Q01DX Z (sc), vehicle: water) of the same molecule?
A: 112 % of control

Source: PubChem BioAssay AID250 (DTP/NCI, 2004)
